The values below come from publication PMC9490236, “Accurate de novo design of membrane-traversing macrocycles” (Cell, 2022).

Where a SMILES comes first, the peptide text is derived from it. [ ]: non-standard residue; d: D form. dNMeF = CN[C@H](Cc1ccccc1)C(=O)O; NMeL = CN[C@@H](CC(C)C)C(=O)O; dNMeL = CN[C@H](CC(C)C)C(=O)O; NMeV = CN[C@H](C(=O)O)C(C)C; Nle = CCCC[C@H](N)C(=O)O; dNMeA = CN[C@H](C)C(=O)O; Sar = CNCC(=O)O

For the first series the following is noted: Caco-2.
`CC(C)C[C@@H]1NC(=O)[C@@H]2CCCN2C(=O)[C@H]2CCCN2C(=O)[C@@H](CC(C)C)N(C)C(=O)[C@@H](Cc2ccccc2)N(C)C(=O)[C@@H](CC(C)C)NC(=O)[C@@H](CC(C)C)N(C)C(=O)[C@@H]2CCCN2C(=O)[C@H](CC(C)C)N(C)C(=O)[C@H](CC(C)C)N(C)C1=O` [Design D10.23, PRO LEU *LEU *LEU PRO *DLEU DLEU *DPHE *DLEU DPRO] (cyclo(L[NMeL][NMeL]P[dNMeL][dL][dNMeF][dNMeL][dP]P)): the “permeability in transwell assays” value is on record as “not permeable”.

The same series, now with this note: PAMPA.
Consider `CC(C)C[C@@H]1NC(=O)[C@@H]2CCCN2C(=O)[C@H]2CCCN2C(=O)[C@@H](CC(C)C)N(C)C(=O)[C@@H](Cc2ccccc2)N(C)C(=O)[C@@H](CC(C)C)NC(=O)[C@@H](CC(C)C)N(C)C(=O)[C@@H]2CCCN2C(=O)[C@H](CC(C)C)N(C)C(=O)[C@H](CC(C)C)N(C)C1=O` [Design D10.23, PRO LEU *LEU *LEU PRO *DLEU DLEU *DPHE *DLEU DPRO] (cyclo(L[NMeL][NMeL]P[dNMeL][dL][dNMeF][dNMeL][dP]P)), for which the PAMPA_Papp_Avg result is given as “BQL”, the PAMPA_R1 result is on record as “BQL” and the PAMPA_R3 entry is listed as “BQL”.

Regarding `CC(C)C[C@@H]1NC(=O)[C@@H]2CCCN2C(=O)[C@@H](Cc2ccccc2)N(C)C(=O)[C@H](CC(C)C)N(C)C(=O)[C@H](CC(C)C)N(C)C(=O)[C@@H](CC(C)C)N(C)C(=O)[C@H](C)NC(=O)[C@H](C(C)C)NC(=O)CNC(=O)[C@H](Cc2ccccc2)NC1=O` [Design D10.24, PHE GLY VAL ALA *DLEU *LEU *LEU *DPHE PRO LEU] (cyclo(A[dNMeL][NMeL][NMeL][dNMeF]PLFGV)), the PAMPA_Papp_Avg result is recorded as “BQL”, the PAMPA_R1 result is recorded as “BQL” and the PAMPA_R3 result is given as “BQL”.

Turning to `CC(C)C[C@@H]1NC(=O)[C@H](C(C)C)NC(=O)[C@@H](C)NC(=O)[C@H](C)NC(=O)[C@@H]2CCCN2C(=O)[C@H]2CCCN2C(=O)[C@@H](C)NC(=O)[C@H]2CCCN2C(=O)[C@@H]2CCCN2C1=O` [Design D9.34, PRO ALA DALA VAL LEU PRO DPRO DALA DPRO] (cyclo(A[dA]VLP[dP][dA][dP]P)), the PAMPA_Papp_Avg entry is “BQL”, the PAMPA_R1 entry is “BQL” and the PAMPA_R3 result is given as “BQL”.

Compound `CCCC[C@@H]1NC(=O)[C@@H]2CCCN2C(=O)[C@@H](C(C)C)NC(=O)[C@@H](C)N(C)C(=O)[C@@H](CC(C)C)NC(=O)[C@@H](CC(C)C)NC(=O)[C@@H]2CCCN2C(=O)[C@H]2CCCN2C1=O` [Design D8.29, MET DPRO PRO DLEU DLEU *DALA DVAL PRO] (cyclo([dL][dL][dNMeA][dV]P[Nle][dP]P)) displayed a PAMPA_Papp_Avg of 3.60E-07, a PAMPA_R1 of 3.98E-07 and a PAMPA_R3 of 3.61E-07.

In the case of `CC[C@@H](C)[C@H]1NC(=O)[C@H](CC(C)C)N(C)C(=O)[C@H]2CCCN2C(=O)[C@H](CC(C)C)NC(=O)[C@@H](Cc2ccccc2)N(C)C(=O)[C@H](CC(C)C)N(C)C(=O)[C@@H](C(C)C)NC(=O)[C@H](C)NC(=O)[C@H]2CCCN2C(=O)[C@@H]2CCCN2C1=O` (single isomer, unassigned) [Design D10.60.p2, *LEU *DPHE LEU DPRO *LEU DILE PRO DPRO ALA DVAL], the PAMPA_Papp_Avg is 1.17E-06, the PAMPA_R1 is given as 1.49E-06 and the PAMPA_R3 worked out at 1.62E-06.

Regarding “*DPHE *LEU PRO DLEU VAL *DLEU PRO DILE *ALA *ALA [Design D10.65]”, the PAMPA_Papp_Avg result is given as “BQL”, the PAMPA_R1 entry is “BQL” and the PAMPA_R3 entry is “BQL”.

`CC[C@@H](C)[C@H]1NC(=O)[C@@H](CC(C)C)N(C)C(=O)[C@@H]2CCCN2C(=O)[C@H]([C@@H](C)CC)NC(=O)[C@H]([C@@H](C)CC)N(C)C(=O)[C@@H](CC(C)C)NC(=O)[C@@H](C(C)C)N(C)C(=O)[C@H]2CCCN2C(=O)[C@@H](C(C)C)NC(=O)[C@@H]2CCCN2C(=O)[C@H]([C@@H](C)CC)NC1=O` (single isomer, unassigned) [Design D11.23.p2, DVAL DPRO *DVAL DLEU *ILE ILE PRO *DLEU DILE ILE PRO] registered a PAMPA_Papp_Avg of 9.83E-07, a PAMPA_R1 of 1.49E-06 and a PAMPA_R3 of 4.80E-07.

Consider `CC[C@@H](C)[C@H]1NC(=O)[C@H](C(C)C)NC(=O)[C@H]2CCCN2C(=O)[C@@H]2CCCN2C(=O)[C@H](Cc2ccccc2)NC(=O)[C@@H](CC(C)C)NC(=O)[C@H](Cc2ccccc2)NC(=O)[C@@H]2CCCN2C(=O)[C@@H](C)N(C)C(=O)[C@@H]2CCCN2C(=O)[C@H](CC(C)C)NC(=O)[C@H](CC(C)C)N(C)C1=O` [Design D12.4, PRO *DALA PRO PHE DLEU PHE PRO DPRO VAL DILE *LEU LEU] (cyclo(FP[dP]V[dI][NMeL]LP[dNMeA]PF[dL])), for which the PAMPA_Papp_Avg entry is on record as “BQL”, the PAMPA_R1 entry is “BQL” and the PAMPA_R3 result is on record as “BQL”.

The compound `CC(C)C[C@H]1NC(=O)[C@@H]2CCCN2C(=O)[C@H]2CCCN2C(=O)[C@H](C(C)C)NC(=O)[C@@H](CC(C)C)NC(=O)[C@@H]2CCCN2C(=O)[C@H]2CCCN2C(=O)[C@H](C(C)C)NC1=O` (single isomer, unassigned) [Design D8.12.p2, DLEU VAL DPRO PRO DLEU VAL DPRO PRO] gave a PAMPA_Papp_Avg of 2.00E-07, a PAMPA_R1 of 1.77E-07 and a PAMPA_R3 of 2.25E-07.

As for `CC(C)C[C@H]1C(=O)N[C@@H](C)C(=O)N(C)CC(=O)N2CCC[C@@H]2C(=O)N(C)[C@@H](C(C)C)C(=O)N[C@@H](C(C)C)C(=O)N2CCC[C@H]2C(=O)N2CCC[C@@H]2C(=O)N[C@@H](C)C(=O)N[C@H](C(C)C)C(=O)N1C` [Design D10.66, PRO DPRO ALA DVAL *LEU ALA *GLY DPRO *VAL VAL] (cyclo(A[Sar][dP][NMeV]VP[dP]A[dV][NMeL])), the PAMPA_Papp_Avg entry is recorded as “BQL”, the PAMPA_R1 entry was “BQL” and the PAMPA_R3 entry is given as “BQL”.

Regarding “PRO DPRO DALA DPHE DLEU ILE DPHE *DALA LEU PRO NLE [Design D11.14.p1]”, the PAMPA_Papp_Avg entry is “BQL”, the PAMPA_R1 result is given as “BQL” and the PAMPA_R3 result is recorded as “BQL”.

With `CC[C@@H](C)[C@H]1NC(=O)[C@H]2CCCN2C(=O)[C@@H]2CCCN2C(=O)[C@H](C(C)C)NC(=O)[C@@H](C(C)C)NC(=O)[C@@H]2CCCN2C(=O)[C@H]2CCCN2C(=O)[C@@H](C)NC1=O` [Design D8.11, DALA DPRO PRO DVAL VAL PRO DPRO DILE] (cyclo([dV]VP[dP][dI][dA][dP]P)), the PAMPA_Papp_Avg result was “BQL”, the PAMPA_R1 result is on record as “BQL” and the PAMPA_R3 result is recorded as “BQL”.

Turning to `CCCC[C@@H]1NC(=O)[C@@H](C)N(C)C(=O)[C@@H]2CCCN2C(=O)[C@@H](CC(C)C)NC(=O)[C@H](CC(C)C)N(C)C(=O)[C@H]2CCCN2C(=O)[C@H](CC(C)C)NC(=O)[C@@H](CC(C)C)NC(=O)[C@@H](C)NC1=O` [Design D9.28, DLEU LEU DPRO *LEU DLEU PRO *DALA MET DALA] (cyclo(L[dP][NMeL][dL]P[dNMeA][Nle][dA][dL])), the PAMPA_Papp_Avg is 1.60E-06, the PAMPA_R1 amounted to 1.84E-06 and the PAMPA_R3 turned out to be 1.41E-06.

`CC(C)C[C@H]1C(=O)N2CCC[C@@H]2C(=O)N[C@@H](Cc2ccccc2)C(=O)N2CCC[C@H]2C(=O)N[C@H](C(C)C)C(=O)N[C@H](Cc2ccccc2)C(=O)N1C` (single isomer, unassigned) [Design D6.9.p2, DVAL DPHE *LEU DPRO PHE PRO]: the PAMPA_Papp_Avg was 6.77e-06 cm/s, the PAMPA_R1 came out at 6.03e-06 cm/s and the PAMPA_R3 was found to be 8.48e-06 cm/s.
